Key:
[1] = design: method as in previously reported (number not given); conditions: oral exposure to a PCB mixture; ref previously reported (number not given); cited from earlier work
[2] = Toxicokinetic parameters by noncompartmental analysis after intratracheal administration of [14C]-PCB28; format: in vivo, Male Sprague–Dawley rats
From the text: Male Sprague–Dawley rats (8 weeks old) weighing 230–285 g (mean of 256 g) were used in this study (Envigo, Indianapolis, IN). Male rats were selected to maintain consistency with previous toxicokinetic investigations of lower-chlorinated PCBs, specifically the study on intratracheally instilled ^14C-labeled dichlorinated PCB11, which also utilized male rats. This approach facilitated direct comparison across studies and contributed to a more comprehensive toxicokinetic data set for LC-PCBs following inhalation exposure. A PCB toxicokinetic study being published separately investigated placental transfer and fetal uptake in pregnant females. All animals were handled in compliance with an approved Institutional Animal Care and Use Committee protocol (protocol#: 3091097 approved on 10/12/2023). Rats were pair-housed in a light and temperature-controlled environment with access to food and water ad libitum. After 1 week of acclimatization, rats were assigned to either a high-dose (HD) group (n = 9) or a low-dose (LD) group (n = 5) at random. Control rats (n = 3) were exposed to a single dose of unlabeled PCB28 (42 μg in 200 μL) and necropsied 50 min after exposure to establish background levels for radioactivity calculations in blank tissues. […] Therefore, animal numbers were customized between groups to most efficiently utilize the limited available ^14C-PCB28 stock in our lab.
Animals in the HD group were intratracheally (i.t.) administered 42 μg of a one-time single dose of [^14C]-PCB28 in 200 μL of vehicle, while animals in the LD group received 4.2 μg of [^14C]-PCB28 in 100 μL of vehicle. The i.t. route for dosing was selected due to the limited availability and extraordinary cost of the radiolabeled PCB28, and to avoid ^14C contamination of the inhalation exposure apparatus. All i.t. instillation was performed under light anesthesia (4% isoflurane via a precision vaporizer Fortec, Cyprane, Keighley, UK). […] Air was drawn from the chamber at 6.0 L/min through a cartridge containing XAD-2 polymeric resin (Amberlite, Millipore Sigma, Burlington, MA) to capture any exhaled [^14C]-PCB28. For the longer time points (720 and 1440 min), individual rats were placed in metabolic cages following a similar protocol for excreta and exhaled breath collection. After exposure, the inner walls of the chamber were rinsed separately with water, acetone, and hexane (25 – 45 mL) and wiped to measure radioactivity. Rat fur was also wiped and analyzed for radioactivity. The rats exposed to the HD were euthanized using isoflurane and exsanguination via cardiac puncture at 12, 25, 50, 100, 200, 400, 720, and 1440 min postexposure (n = 1 per time point except n = 2 for 200 min). […] Euthanasia was consistently performed during the light cycle, except in the case of the 720 min time point, wherein euthanasia occurred outside the light cycle.
Serum and blood cells were separated. Two to six technical replicates were collected from 36 tissue types and digestive matter (diluted in ultrapure water) from 5 different GI tract locations. Muscle and adipose tissue samples were obtained from various locations. The collected tissue samples were placed in scintillation vials containing 1 mL of solvable cocktail and kept at 37 °C overnight for complete solubilization. To enable subsequent analyses, the solubilized tissue samples underwent a 2-h heating phase at 50 °C. For the bone, feces, and digestive matter, 1 mL of isopropyl alcohol was added. For samples displaying darker coloration, a controlled volume of 30% hydrogen peroxide (100 to 300 μL) was slowly added in increments to remove potential interference.

SMILES: Clc1ccc(-c2ccc(Cl)cc2Cl)cc1 [PCB28, 2,4,4′-trichlorobiphenyl]
- time of peak adipose concentration [1]: 24 h
- AUC, high dose compared to low dose ([2]; adipose tissue): 18.7 fold
- C24 ([2]; adipose, high dose (42 μg i.t.)): 385 dpm/mg
- C24 ([2]; adipose, low dose (4.2 μg i.t.)): 63.7 dpm/mg
- C24 ([2]; bladder, high dose (42 μg i.t.)): 8.0 dpm/mg
- C24 ([2]; bladder, low dose (4.2 μg i.t.)): 6.4 dpm/mg
- C24 ([2]; brain, high dose (42 μg i.t.)): 11.0 dpm/mg
- C24 ([2]; brain, low dose (4.2 μg i.t.)): 2.4 dpm/mg
- C24 ([2]; bronchi, high dose (42 μg i.t.)): 205 dpm/mg
- C24 ([2]; bronchi, low dose (4.2 μg i.t.)): 48.6 dpm/mg
- C24 ([2]; esophagus, high dose (42 μg i.t.)): 13.0 dpm/mg
- C24 ([2]; esophagus, low dose (4.2 μg i.t.)): 8.8 dpm/mg
- C24 ([2]; heart, high dose (42 μg i.t.)): 17.0 dpm/mg
- C24 ([2]; heart, low dose (4.2 μg i.t.)): 3.2 dpm/mg
- blood/plasma ratio (blood-to-serum ratio) ([2]; high dose (42 μg i.t.)): 0.89
- C24 ([2]; kidney, high dose (42 μg i.t.)): 23.0 dpm/mg
- C24 ([2]; kidney, low dose (4.2 μg i.t.)): 5.6 dpm/mg
- C24 ([2]; liver, high dose (42 μg i.t.)): 22.0 dpm/mg
- C24 ([2]; liver, low dose (4.2 μg i.t.)): 5.7 dpm/mg
- blood/plasma ratio (blood-to-serum ratio) ([2]; low dose (4.2 μg i.t.)): 0.89
- C24 ([2]; lung, high dose (42 μg i.t.)): 44.0 dpm/mg
- C24 ([2]; lung, low dose (4.2 μg i.t.)): 6.4 dpm/mg
- AUC, high dose compared to low dose ([2]; muscle): 15.7 fold
- C24 ([2]; muscle, high dose (42 μg i.t.)): 10.0 dpm/mg
- C24 ([2]; muscle, low dose (4.2 μg i.t.)): 3.2 dpm/mg
- C24 ([2]; pancreas, high dose (42 μg i.t.)): 93.0 dpm/mg
- C24 ([2]; pancreas, low dose (4.2 μg i.t.)): 29.5 dpm/mg
- AUC, high dose compared to low dose ([2]; prostate): 17.1 fold
- C24 ([2]; prostate, high dose (42 μg i.t.)): 89.0 dpm/mg
- C24 ([2]; prostate, low dose (4.2 μg i.t.)): 15.9 dpm/mg
- serum AUC0–24 h, high dose compared to low dose ([2]; serum): approximately 10 fold
- T1/2 ([2]; serum, high dose (42 μg i.t.), Table 1 prints mean (C–V%) without naming the dose): 12 h
- C24 ([2]; serum, low dose (4.2 μg i.t.)): 0.80 dpm/mg
- AUC, high dose compared to low dose ([2]; skin): 15.1 fold
- C24 ([2]; skin, high dose (42 μg i.t.)): 155 dpm/mg
- C24 ([2]; skin, low dose (4.2 μg i.t.)): 34.2 dpm/mg
- AUC, high dose compared to low dose ([2]; spleen): 16.4 fold
- C24 ([2]; spleen, high dose (42 μg i.t.)): 18.0 dpm/mg
- C24 ([2]; spleen, low dose (4.2 μg i.t.)): 3.2 dpm/mg
- C24 ([2]; testis, high dose (42 μg i.t.)): 6.0 dpm/mg
- C24 ([2]; testis, low dose (4.2 μg i.t.)): 1.6 dpm/mg
- C24 ([2]; thymus, high dose (42 μg i.t.)): 23.0 dpm/mg
- C24 ([2]; thymus, low dose (4.2 μg i.t.)): 4.8 dpm/mg
- C24 ([2]; thyroid, high dose (42 μg i.t.)): 72.0 dpm/mg
- C24 ([2]; thyroid, low dose (4.2 μg i.t.)): 9.6 dpm/mg
- C24 ([2]; trachea, high dose (42 μg i.t.)): 86.0 dpm/mg
- C24 ([2]; trachea, low dose (4.2 μg i.t.)): 21.5 dpm/mg

— PMC12593371, “Whole-Body Disposition and Metabolism of [^14C]-2,4,4′-Trichlorobiphenyl (PCB28) Following Lung Administration in Rats” (Environmental Science & Technology, 2025)
